Measured values from PubChem BioAssay AID248 (DTP/NCI, 2004).
Where “and” joins values, the source holds several entries; their conditions need not be identical. Equal entries are not always repeated. Toxic doses and inconclusive results are not listed. Rule as the data show it: active = T/C of 150% or more; inactive = T/C below 125%.

System: L1210 leukemia ip in BDF1 mice, survival T/C
Experiment: NCI In Vivo Anticancer Drug Screen. Data for tumor model L1210 Leukemia (intraperitoneal) in B6D2F1 (BDF1) mice
Settings: endpoint: mean survival time, higher = longer survival
Summary of the method: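 Transplanted-tumor mice were given test agent; controls received vehicle only. Survival readings from the two groups were divided (treated over control).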

[1] = dose: 100.0 mg/kg/injection, schedule: Q04DX003 (ip), vehicle: saline
[2] = dose: 200.0 mg/kg/injection, schedule: Q04DX003 (ip), vehicle: saline
[3] = dose: 400.0 mg/kg/injection, schedule: Q04DX003 (ip), vehicle: saline
[4] = dose: 100.0 mg/kg/injection, schedule: Q01DX009 (ip), vehicle: Klucel (hydroxypropylcellulose) (HPC)
[5] = dose: 100.0 mg/kg/injection, schedule: Q04DX003 (ip), vehicle: Klucel (hydroxypropylcellulose) (HPC)
[6] = dose: 200.0 mg/kg/injection, schedule: Q01DX009 (ip), vehicle: Klucel (hydroxypropylcellulose) (HPC)
[7] = dose: 200.0 mg/kg/injection, schedule: Q04DX003 (ip), vehicle: Klucel (hydroxypropylcellulose) (HPC)
[8] = dose: 400.0 mg/kg/injection, schedule: Q01DX009 (ip), vehicle: Klucel (hydroxypropylcellulose) (HPC)
[9] = dose: 400.0 mg/kg/injection, schedule: Q04DX003 (ip), vehicle: Klucel (hydroxypropylcellulose) (HPC)
[10] = dose: 100.0 mg/kg/injection, schedule: Q04DX003 (ip), vehicle: saline with Tween-80
[11] = dose: 200.0 mg/kg/injection, schedule: Q04DX003 (ip), vehicle: saline with Tween-80
[12] = dose: 400.0 mg/kg/injection, schedule: Q04DX003 (ip), vehicle: saline with Tween-80
[13] = dose: 100.0 mg/kg/injection, schedule: Q01DX001 (ip), vehicle: carboxymethylcellulose (CMC)
[14] = dose: 200.0 mg/kg/injection, schedule: Q01DX001 (ip), vehicle: carboxymethylcellulose (CMC)
[15] = dose: 400.0 mg/kg/injection, schedule: Q01DX001 (ip), vehicle: carboxymethylcellulose (CMC)
[16] = dose: 100.0 mg/kg/injection, schedule: Q01DX001 (ip), vehicle: Klucel (hydroxypropylcellulose) (HPC)
[17] = dose: 100.0 mg/kg/injection, schedule: Q01DX001 (ip), vehicle: saline
[18] = dose: 200.0 mg/kg/injection, schedule: Q01DX001 (ip), vehicle: saline
[19] = dose: 400.0 mg/kg/injection, schedule: Q01DX001 (ip), vehicle: saline
[20] = dose: 100.0 mg/kg/injection, schedule: Q01DX009 (ip), vehicle: saline
[21] = dose: 100.0 mg/kg/injection, schedule: Q04DX002 (ip), vehicle: Klucel (hydroxypropylcellulose) (HPC)
[22] = dose: 200.0 mg/kg/injection, schedule: Q04DX002 (ip), vehicle: Klucel (hydroxypropylcellulose) (HPC)
[23] = dose: 400.0 mg/kg/injection, schedule: Q04DX002 (ip), vehicle: Klucel (hydroxypropylcellulose) (HPC)

Measured: T/C

CN1CN(C2CCCCC2)CSC1=S
inactive: dose: 100.0 mg/kg/injection, schedule: Q01DX001 (ip), vehicle: acetone 95 % of control | dose: 100.0 mg/kg/injection, schedule: Q04DX003 (ip), vehicle: acetone 101 % of control | [1] 101 % of control | dose: 200.0 mg/kg/injection, schedule: Q01DX001 (ip), vehicle: acetone 92 % of control | dose: 200.0 mg/kg/injection, schedule: Q04DX003 (ip), vehicle: acetone 106 % of control | [2] 102 % of control | dose: 400.0 mg/kg/injection, schedule: Q01DX001 (ip), vehicle: acetone 100 % of control | dose: 400.0 mg/kg/injection, schedule: Q04DX003 (ip), vehicle: acetone 94 % of control | [3] 98 % of control

O=C(NCc1ccccc1)c1ccc(C(=O)NCc2ccccc2)cc1
inactive: dose: 100.0 mg/kg/injection, schedule: Q01DX001 (ip), vehicle: other 90 % of control | dose: 200.0 mg/kg/injection, schedule: Q01DX001 (ip), vehicle: other 88 % of control | dose: 400.0 mg/kg/injection, schedule: Q01DX001 (ip), vehicle: other 96 % of control

C/C(=N/N=C(/C)c1ccccc1)c1ccccc1
inactive: dose: 50.0 mg/kg/injection, schedule: Q04DX003 (ip), vehicle: Klucel (hydroxypropylcellulose) (HPC) 110 % of control | [4] 96 % of control | [5] 94 % of control | [6] 100 % of control | [7] 103 % of control | [8] 96 % of control | [9] 97 % of control

O/N=C1/CCCC/C1=C/c1ccccc1Cl
inactive: [10] 92 % of control | [11] 100 % of control | [12] 100 % of control

CC(C)CC(N)C(=O)O (centres undefined)
inactive: [13] 87 % of control | [14] 91 % of control | [15] 91 % of control

O=C1CCOc2ccc(Cl)cc21
inactive: [4] 95 % of control | [6] 101 % of control | [8] 106 % of control

Nc1nc(N)c2nc(CNc3ccc(C(=O)NCCCC(=O)O)cc3)cnc2n1 (tested in a mixture with another compound)
inactive: dose: 12.5 mg/kg/injection, schedule: Q01DX001 (ip), vehicle: Klucel (hydroxypropylcellulose) (HPC) 92 % of control | dose: 25.0 mg/kg/injection, schedule: Q01DX001 (ip), vehicle: Klucel (hydroxypropylcellulose) (HPC) 97 % of control | [16] 108 % of control

NC1(C(=O)O)CC(O)(c2ccccc2)C(O)(c2ccccc2)C1 (centres undefined)
inactive: [17] 88 % of control | [18] 93 % of control

CCNC(=O)c1csnn1
inactive: dose: 75.0 mg/kg/injection, schedule: Q01DX001 (ip), vehicle: other 98 % of control | dose: 150.0 mg/kg/injection, schedule: Q01DX001 (ip), vehicle: other 101 % of control | dose: 300.0 mg/kg/injection, schedule: Q01DX001 (ip), vehicle: other 104 % of control

O=c1[nH]nc(-c2ccc(Br)cc2)s1
inactive: [5] 101 % of control | [7] 95 % of control | [9] 98 % of control

C=CCc1ccccc1C
inactive: [17] 106 % of control | [18] 102 % of control | [19] 101 % of control

CC(=O)Nc1ccc2scnc2c1
inactive: [10] 112 % of control | [11] 112 % of control | [12] 105 % of control

N/C(N=P(c1ccccc1)(c1ccccc1)c1ccccc1)=N\[N+](=O)[O-]
inactive: dose: 100.0 mg/kg/injection, schedule: Q04DX002 (ip), vehicle: gum acacia 101 % of control | dose: 200.0 mg/kg/injection, schedule: Q04DX002 (ip), vehicle: gum acacia 107 % of control | dose: 400.0 mg/kg/injection, schedule: Q04DX002 (ip), vehicle: gum acacia 101 % of control

CCC(C(C)=O)C(C)=O.CCC(C(C)=O)C(C)=O.[Cu]
inactive: dose: 6.0 mg/kg/injection, schedule: Q01DX001 (ip), vehicle: saline 95 % of control | dose: 12.0 mg/kg/injection, schedule: Q01DX001 (ip), vehicle: saline 101 % of control | dose: 25.0 mg/kg/injection, schedule: Q01DX001 (ip), vehicle: saline 112 % of control

Nc1ccc(S(=O)(=O)CI)cc1
inactive: [13] 100 % of control | [14] 92 % of control

CCC(SC#N)C(CC)SC#N (centres undefined)
inactive: dose: 12.5 mg/kg/injection, schedule: Q04DX002 (ip), vehicle: Klucel (hydroxypropylcellulose) (HPC) 103 % of control | dose: 25.0 mg/kg/injection, schedule: Q04DX002 (ip), vehicle: Klucel (hydroxypropylcellulose) (HPC) 93 % of control | dose: 50.0 mg/kg/injection, schedule: Q04DX002 (ip), vehicle: Klucel (hydroxypropylcellulose) (HPC) 90 % of control

CC(C)(C)/C(=N\[N+](C)(C)C)c1ccccc1
inactive: [1] 98 % of control

O=[N+]([O-])c1cc(S(=O)(=O)O)cc(S(=O)(=O)O)c1O
inactive: [20] 102 % of control | [1] 94 % of control | dose: 200.0 mg/kg/injection, schedule: Q01DX009 (ip), vehicle: saline 94 % of control | [2] 100 % of control | dose: 400.0 mg/kg/injection, schedule: Q01DX009 (ip), vehicle: saline 91 % of control | [3] 93 % of control

C/C(=N\N=C(N)N)c1cccc(NC(=S)Nc2cccc(/C(C)=N/N=C(N)N)c2)c1
inactive: dose: 20.0 mg/kg/injection, schedule: Q01DX005 (ip), vehicle: saline with Tween-80 108 % of control

Cc1no[n+]([O-])c1C(=O)NN
inactive: [21] 106 % of control | [22] 91 % of control | [23] 95 % of control

CN(C)N=Nc1ccc(C(=N)N)cc1
inactive: dose: 100.0 mg/kg/injection, schedule: Q01DX001 (ip), vehicle: acid diluted with saline 105 % of control

CCOP(=O)(O)Cc1c(Cl)c(Cl)c(CP(=O)(O)OCC)c(Cl)c1Cl
inactive: [17] 110 % of control | [18] 104 % of control | [19] 107 % of control

CC(Br)CNC(=O)c1cc([N+](=O)[O-])cc([N+](=O)[O-])c1 (centres undefined)
inactive: dose: 75.0 mg/kg/injection, schedule: Q04DX003 (ip), vehicle: Klucel (hydroxypropylcellulose) (HPC) 96 % of control | dose: 150.0 mg/kg/injection, schedule: Q04DX003 (ip), vehicle: Klucel (hydroxypropylcellulose) (HPC) 92 % of control | dose: 300.0 mg/kg/injection, schedule: Q04DX003 (ip), vehicle: Klucel (hydroxypropylcellulose) (HPC) 94 % of control

CC1(C)N=C(N)N=C(N)N1c1ccc(OCC(=O)Nc2cccc(S(=O)(=O)F)c2)cc1
inactive: [17] 105 % of control | [18] 91 % of control | [19] 107 % of control

O=C(Nc1ccc(Cl)c(Cl)c1)Nc1ccc(Cl)cc1O
inactive: [13] 100 % of control | [14] 96 % of control | [15] 96 % of control

CCOC(=O)Nc1cc(Cl)ccc1C
inactive: [16] 101 % of control | [4] 102 % of control | [21] 97 % of control and 100 % of control | [5] 103 % of control | dose: 200.0 mg/kg/injection, schedule: Q01DX001 (ip), vehicle: Klucel (hydroxypropylcellulose) (HPC) 102 % of control | [6] 102 % of control | [22] 100 % of control and 104 % of control | [7] 107 % of control | dose: 400.0 mg/kg/injection, schedule: Q01DX001 (ip), vehicle: Klucel (hydroxypropylcellulose) (HPC) 111 % of control | [8] 96 % of control | [23] 103 % of control and 110 % of control | [9] 96 % of control

CC(=O)OC(c1ccccc1)C(C)C (centres undefined)
inactive: dose: 100.0 mg/kg/injection, schedule: Q04DX002 (ip), vehicle: saline 107 % of control | dose: 200.0 mg/kg/injection, schedule: Q04DX002 (ip), vehicle: saline 96 % of control | dose: 400.0 mg/kg/injection, schedule: Q04DX002 (ip), vehicle: saline 103 % of control

O=[n+]1ccn2ccccc2c1
inactive: dose: 50.0 mg/kg/injection, schedule: Q01DX009 (ip), vehicle: saline 100 % of control | [20] 102 % of control | [5] 98 % of control | [7] 104 % of control
